Earlier results as cited in US20210369737A1, “PROSTATE FUNCTION SUPPORT FORMULA” (Innovus Pharmaceuticals, Inc., priority 2017, published 2021).

Tests used:
[1] = system: BPH
[2] = system: prostate cancer cell; conditions: in vitro
[3] = system: prostate tumors; conditions: TRAMP mice
[4] = system: prostate cancer cells
[5] = in vivo
[6] = system: PSA; conditions: clinical trials
[7] = system: human prostate tumor in vivo xenografts
[8] = system: CP/CPPS
[9] = system: prostate cancer cells; conditions: in vitro
[10] = target: T1, androgen receptor (Homo sapiens, UniProt P10275); conditions: in vitro
T1 sequence (P10275 1-920): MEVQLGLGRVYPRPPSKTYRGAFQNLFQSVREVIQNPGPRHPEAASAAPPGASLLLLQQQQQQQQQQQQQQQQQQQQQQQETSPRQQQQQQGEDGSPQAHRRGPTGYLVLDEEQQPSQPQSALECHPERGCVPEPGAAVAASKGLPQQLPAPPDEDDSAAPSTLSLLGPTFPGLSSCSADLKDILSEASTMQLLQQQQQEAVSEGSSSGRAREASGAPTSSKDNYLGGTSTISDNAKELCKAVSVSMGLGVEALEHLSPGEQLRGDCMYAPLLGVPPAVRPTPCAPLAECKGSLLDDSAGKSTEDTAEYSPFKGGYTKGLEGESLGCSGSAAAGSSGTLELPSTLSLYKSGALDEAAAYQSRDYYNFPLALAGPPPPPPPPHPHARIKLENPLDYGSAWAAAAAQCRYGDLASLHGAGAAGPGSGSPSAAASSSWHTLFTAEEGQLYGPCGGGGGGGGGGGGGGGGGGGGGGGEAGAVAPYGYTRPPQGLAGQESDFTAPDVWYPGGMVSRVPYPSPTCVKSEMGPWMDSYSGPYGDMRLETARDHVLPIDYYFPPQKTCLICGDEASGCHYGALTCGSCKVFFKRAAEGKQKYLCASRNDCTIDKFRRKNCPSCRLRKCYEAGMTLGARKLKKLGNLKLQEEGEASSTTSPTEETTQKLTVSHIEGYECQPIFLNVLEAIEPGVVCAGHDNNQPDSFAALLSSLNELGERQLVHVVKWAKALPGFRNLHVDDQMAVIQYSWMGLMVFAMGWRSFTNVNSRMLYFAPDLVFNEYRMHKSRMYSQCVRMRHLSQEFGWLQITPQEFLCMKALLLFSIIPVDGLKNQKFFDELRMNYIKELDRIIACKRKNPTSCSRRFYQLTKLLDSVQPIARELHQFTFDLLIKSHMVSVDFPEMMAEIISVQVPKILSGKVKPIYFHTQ

[11] = system: prostate cancer; conditions: in vitro and in vivo
[12] = system: prostate cancer and BPH cells; conditions: in vitro

Q: For `CC[C@H](CC[C@@H](C)[C@H]1CC[C@H]2[C@@H]3CC=C4C[C@@H](O)CC[C@]4(C)[C@H]3CC[C@]12C)C(C)C` [Beta-sitosterols, Beta-Sitosterol], which “levels of DHT” value ([1]; clinical) is on record?
A: The value was “decrease levels of DHT”.

Q: And the urinary flow ([1]; clinical)?
A: Its urinary flow is “significantly improve urinary flow”.

Q: And the “maintenance of improvements in follow-up” value ([1]; follow-up study, observation)?
A: Its value is 18 months.

Q: And the symptom scores ([1]; versus placebo, after three and six months of treatment)?
A: The symptom scores was “significant decrease in symptom scores”.

Q: For `O=C(O[C@@H]1Cc2c(O)cc(O)cc2O[C@@H]1c1cc(O)c(O)c(O)c1)c1cc(O)c(O)c(O)c1` [EGCG], which androgen antagonism [2] is on record?
A: Its androgen antagonism is “acts as an anti-androgen antagonist”.

Q: And the “prostate cancer cell proliferation and PSA production” value [2]?
A: The value was “suppresses prostate cancer cell proliferation and production of prostate-specific antigen (PSA)”.

Q: And the “tumor size and development of prostate tumors” value [3]?
A: Its value is “reduces tumor size and delays development of prostate tumors”.

Q: Which results are given for `CC(C)=CCC/C(C)=C/C=C/C(C)=C/C=C/C(C)=C/C=C/C=C(C)/C=C/C=C(C)/C=C/C=C(\C)CCC=C(C)C` [Lycopene]?
A: antitumorigenic effect ([4]; animal studies): antitumorigenic effect; antioxidant response, proliferation, apoptosis, metastatic capacity of prostate cells ([4]; in vitro and in vivo): enhance the antioxidant response of prostate cells, inhibit proliferation, demonstrate chemopreventive effect induce apoptosis and decrease the metastatic capacity of prostate cancer cells; safety status [5]: generally recognized as safe (GRAS); PSA levels [6]: reduction of PSA levels

Q: With `O=c1c(O)c(-c2ccc(O)c(O)c2)oc2cc(O)cc(O)c12` [Quercetin, 2-(3,4-dihydroxyphenyl)-3,5,7-trihydroxy-4H-chromen-4-one] as the molecule, how does the “prostate weight and anti-tumor activity” value ([7]; in vivo, in combination with finasteride) read?
A: The value was “effective in vivo in combination with finasteride to reduce prostate weight and anti-tumor activity”.

Q: What about the “effect on human prostate tumor xenografts” value ([7]; mice) of the same molecule?
A: The value was “has an effect on human prostate tumor in vivo xenografts”.

Q: What about the “symptoms in CP/CPPS” value ([8]; clinical) of the same molecule?
A: Its value is “symptomatic improvement”.

Q: And the IPSS ([8]; randomized, double-blind, placebo controlled clinical trial)?
A: Its IPSS is “decrease in IPSS”.

Q: And the “apoptosis and caspase activation” value [9]?
A: Its value is “promoted prostate cancer cells apoptosis and caspase activation”.

Q: What about the “prostate cancer cell proliferation” value [9] of the same molecule?
A: Its value is “inhibits prostate cancer cell proliferation”.

Q: For `[Se]` [Selenium], which “levels of p53” value [10] is on record?
A: Its value is “increase levels of p53”.

Q: And the “activity of the androgen receptor” value ([10]; prostate cancer cells)?
A: Its value is “decrease the activity of the androgen receptor”.

Q: What about the “prostate cancer risk, tumor progression, apoptosis” value [11] of the same molecule?
A: The value was “reduce risk of prostate cancer, suppress tumor progression and cell apoptosis”.

Q: Which “apoptosis and antiproliferative effects” value [12] does the source give for `[Zn]` [Zinc] here?
A: The value was “induces apoptosis and antiproliferative effects”.

Q: With Vitamin E as the molecule, how does the “prostate cancer risk, tumor progression, apoptosis” value [11] read?
A: Its value is “reduce risk of prostate cancer, suppress tumor progression and cell apoptosis”.
